Legend:
[1] = molecular target: T1, transcortin (Homo sapiens, UniProt P08185); experiment: Binding of cortisol tracers to serum proteins / transcortin with and without ANS (Example 4); conditions: for % Tracer Bound to Serum Proteins (Corrected for Non-Specific Binding): charcoal extracted human serum
T1 construct: charcoal extracted human serum; from tissue; host or cells: human serum, charcoal extracted (unpurified)
T1 sequence (P08185 23-405): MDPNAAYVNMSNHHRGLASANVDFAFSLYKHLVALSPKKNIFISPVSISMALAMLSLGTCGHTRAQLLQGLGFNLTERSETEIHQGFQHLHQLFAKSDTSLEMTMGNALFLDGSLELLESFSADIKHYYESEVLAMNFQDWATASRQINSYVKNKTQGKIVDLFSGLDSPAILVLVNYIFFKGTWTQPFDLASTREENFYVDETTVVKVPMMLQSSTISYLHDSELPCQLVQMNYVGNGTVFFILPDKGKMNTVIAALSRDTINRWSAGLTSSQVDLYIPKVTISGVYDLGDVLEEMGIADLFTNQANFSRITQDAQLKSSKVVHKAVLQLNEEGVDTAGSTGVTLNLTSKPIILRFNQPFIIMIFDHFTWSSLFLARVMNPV
Protocol: The protocol was as follows:
B. 200 μl buffer (containing either 0 or 600 μg of 8-anilinonaphthalene sulphonic acid (ANS) as a cortisol binding site blocking agent).
A mixture of A and B was incubated at 37° C. for one hour. […] The reaction tubes were mixed for one hour at room temperature. A 0.5 ml aliquot of the supernatant was then removed for counting.

[2] = system: solid phase T4 specific antibody; experiment: Binding of labelled T4 derivatives to solid phase T4 antibody with and without thiomersal (Example 7); design: species or system sheep; conditions: 125I-labelled T4 derivative
Protocol: (§1) The dominant binding protein for T4 in serum is TBG, and the binding site for T4 on this protein may be blocked by adding an appropriate concentration of thiomersalate to the buffer.
(§2) The labelled T4 derivative was dissolved in 0.01 molar phosphate, pH 7.4 containing 0.9% sodium chloride and 0.1% gelatin to give a radioactive concentration of approximately 0.05 microcuries per milliliter. In the part of the experiment where the blocking agent was used, this buffer contained 1.8% thiomersal.
(§3) A solid phase T4 specific antibody was used that consisted of a pre-precipitated double antibody complex made by reacting sheep anti-T4 serum and donkey anti-rabbit gamma globulin serum in the abovementioned phosphate buffer. A concentration of this solid phase T4 antibody suspension was chosen that bound approximately 50% of ^125 I-T4 tracer in the presence of blocking agent under the experimental conditions used.
(§4) The binding of the labelled T4 derivatives was tested as follows:
(§5) 50 μl human serum (depleted of T4 by resin extraction)
(§6) 500 μl labelled T4 derivative (with or without blocking agent)
(§7) 1.0 ml solid phase T4 antibody suspension
(§8) Tubes were incubated for 2 hours at 37° C. and then centrifuged to settle the solid phase antibody. The supernatant solution was decanted and the radioactivity in the solid phase measured.

[3] = molecular target: T2, TBG (Homo sapiens, UniProt P05543); experiment: Binding of T4 derivatives to TBG, from antibody binding in presence and absence of blocking agent (Example 7)
T2 sequence (P05543 21-415): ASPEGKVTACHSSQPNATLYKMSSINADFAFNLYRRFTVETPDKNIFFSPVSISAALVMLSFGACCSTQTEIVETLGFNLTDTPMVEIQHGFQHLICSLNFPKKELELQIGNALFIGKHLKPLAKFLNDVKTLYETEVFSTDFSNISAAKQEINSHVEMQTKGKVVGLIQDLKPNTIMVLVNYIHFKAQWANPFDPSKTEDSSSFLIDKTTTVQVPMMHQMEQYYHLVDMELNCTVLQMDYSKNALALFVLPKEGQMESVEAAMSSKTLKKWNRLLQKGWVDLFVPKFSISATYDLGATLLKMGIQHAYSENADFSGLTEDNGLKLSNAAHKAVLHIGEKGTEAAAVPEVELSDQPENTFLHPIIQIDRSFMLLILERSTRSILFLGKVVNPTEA
Protocol: as §1, §2, §3, §4, §5, §6, §7, §8
The right-hand column of the above table sets out the ratio of the figures in the two other columns. As a rule of thumb, it may be said that this ratio should be at least 0.6, preferably at least 0.9 for the compound tested to be worth considering for use in the free T4 assay. It should be noted, however, that these figures are valid only for the free T4 assay and not necessarily for other free ligand assays.

[4] = system: sheep-anti-T4 serum; experiment: Free T4 assay, tracer N-acetyl-thyroxine-methyl ester bound to sheep anti-T4 serum (standard curve, Example 1); type: binding
Excerpt: The labelled derivative of the ligand was N-acetyl-thyroxine-methyl ester, labelled by iodine-125 exchange using sodium iodide-I^125 and chloramine-T. The specific activity was 1500 millicuries per milligram. The tractor concentration was 90 picomolar.
The specific binder was a solution of sheep-anti-T4 serum raised against thyroxine methyl ester coupled to bovine serum albumin by carbodiimide. The final dilution was 1/60,000 in buffer.
The buffer contained 13.6 g/l KH2 PO4, 9.0 g/l NaCl, 0.07 g/l NaN3 and 1.0 g/l gelatin.
50 micro-liters of a serum sample was mixed with 200 micro-liters of the radioactive ligand derivative solution and 200 micro-liters of specific binder solution and the mixture incubated at room temperature for one hour. Then 1 milli-liter of polyethyleneglycol solution (20%) was added, and the reaction mixture centrifuged. The supernatant liquid was decanted and the radioactivity of the precipitate was measured.

[5] = molecular target: T2, TBG; conditions: blood stream of human beings; cited from earlier work
[6] = system: TBPA; conditions: blood stream of human beings; cited from earlier work
[7] = system: Albumin; conditions: blood stream of human beings; cited from earlier work
[8] = system: thyroxine binding globulin (TBG), thyroxine binding pre-albumin (TBPA) and albumin (Alb); conditions: blood serum or plasma; cited from earlier work
[9] = system: transcortin and albumin; conditions: cited from earlier work
[10] = system: sex hormone binding globulin (SHBG); conditions: cited from earlier work
[11] = system: plasma proteins such as sex hormone binding globulin and albumin; conditions: cited from earlier work
[12] = system: T4-binding reagent (pre-precipitated double antibody complex, sheep anti-T4 serum); experiment: Free T4 assay using N-acetyl-thyroxine-dimethylamide, tracer bound to T4-binding reagent (Example 6)
Excerpt: The labelled derivative of the ligand was N-acetyl-thyroxine-dimethylamide,labelled by iodine-125 exchange using sodium iodide I^125 and chloromine-T. The specific activity was 1000 millicuries per milligram. The tracer concentration was 0.5 μCi/ml.
The specific binder was a pre-precipitated double antibody complex made from sheep anti-T4 serum and donkey anti-rabbit γ globulin serum. This reagent is referred to as the T4-binding reagent.
The buffer was 0.01 molar phosphate, pH 7.4, containing 9.0 g/l NaCl, 1.0 g/l NaN3 and 1.0 g/l gelatin. 50 micro-liters of a serum sample or standard was mixed with 500 micro-liters of the tracer solution and 1000 micro-liters of the T4-binding reagent. The mixture was incubated for 2 hours at 37° C., centrifuged, decanted, and drained. The radioactivity of the precipitate was measured.

| SMILES | % of T4 derivative bound to antibody ([2]; Thiomersal absent) | % of T4 derivative bound to antibody ([2]; Thiomersal present) | Ratio (% bound to antibody, thiomersal absent / present) [3] | binding to TBG (in words) [3] | suitability of TBG binding reduction for free-T4 assay (in words) [3] | other results |
| --- | --- | --- | --- | --- | --- | --- |
| C[C@]12CCC(=O)C=C1CC[C@@H]1[C@@H]2[C@@H](O)C[C@@]2(C)[C@H]1CC[C@]2(O)C(=O)CO [Cortisol (H^3), Cortisol, reference compound] |  |  |  |  |  | binding to transcortin (in words) [1]: binds strongly to transcortin; % Tracer Bound to Serum Proteins (Corrected for Non-Specific Binding) ([1]; ANS 0 μg/tube): 28%; % Tracer Bound to Serum Proteins (Corrected for Non-Specific Binding) ([1]; ANS 600 μg/tube): 3.5%; displacement from transcortin by ANS blocking agent (in words) ([1]; high concentrations of ANS): displaced at high concentrations of the ANS blocking agent |
| COC(=O)[C@@H](Cc1cc(I)c(Oc2cc(I)c(O)c(I)c2)c(I)c1)NC(C)=O [D-T4/A, N-Acetyl D-T4-methylester] | 38% | 38% | 1.00 | appears to decrease this binding to TBG even further | sufficiently reduced binding to TBG for use in the free-T4 assay |  |
| CC(=O)N[C@@H](Cc1cc(I)c(Oc2cc(I)c(O)c(I)c2)c(I)c1)C(=O)N(C)C [L-T4/M, N-Acetyl-L-T4-dimethylamide] | 50% | 50% | 1.00 | appears to have minimal binding to TBG | sufficiently reduced binding to TBG for use in the free-T4 assay |  |
| COC(=O)[C@H](Cc1cc(I)c(Oc2cc(I)c(O)c(I)c2)c(I)c1)NC(C)=O [N-acetyl-thyroxine-methyl ester] |  |  |  |  |  | % Radioactivity in Solid Phase ([4]; Free T4 0.0 ng/dl): 58%; % Radioactivity in Solid Phase ([4]; Free T4 0.2 ng/dl): 55%; % Radioactivity in Solid Phase ([4]; Free T4 1.0 ng/dl): 47%; % Radioactivity in Solid Phase ([4]; Free T4 3.0 ng/dl): 34%; % Radioactivity in Solid Phase ([4]; Free T4 5.8 ng/dl): 22% |
| N[C@@H](Cc1cc(I)c(Oc2cc(I)c(O)c(I)c2)c(I)c1)C(=O)O [L-T4, thyroxine, reference compound] | 12% | 50% | 0.24 | bound appreciably by TBG |  | percentage of T4 bound to TBG [5]: approximately 70%; percentage of T4 bound to TBPA [6]: 20-25%; percentage of T4 bound to Albumin [7]: 5-10%; bound to naturally occurring binding proteins [8]: approximately 99.98% |
| CCNC(=O)[C@H](Cc1cc(I)c(Oc2cc(I)c(O)c(I)c2)c(I)c1)NC(C)=O [L-T4/L, N-Acetyl-L-T4-monoethylamide] | 21% | 60% | 0.35 | bound to TBG to about the same extent as D-T4 | not reduced enough for consideration as a T4 derivative for a free-T4 assay |  |
| C[C@]12CCC(=O)C=C1CC[C@@H]1[C@@H]2[C@@H](O)C[C@@]2(C)[C@H]1CC[C@]2(O)C(=O)CO [cortisol] |  |  |  |  |  | cortisol in free form in blood plasma [9]: ~8% |
| C[C@]12CC[C@@H]3c4ccc(O)cc4CC[C@H]3[C@@H]1CC[C@@H]2O [oestradiol] |  |  |  |  |  | binding to SHBG (in words) [10]: bind strongly |
| CC(=O)N[C@@H](Cc1cc(I)c(Oc2cc(I)c(O)c(I)c2)c(I)c1)C(=O)O [L-T4/F, N-Acetyl-L-T4] | 22% | 52% | 0.42 | bound to TBG to about the same extent as D-T4 | not reduced enough for consideration as a T4 derivative for a free-T4 assay |  |
| C[C@]12CC[C@H]3[C@@H](CCC4=CC(=O)CC[C@@]43C)[C@@H]1CC[C@@H]2O (stereo in doubt) [testosterone] |  |  |  |  |  | proportion bound to plasma proteins [11]: > 90%; binding to SHBG (in words) [10]: bind strongly |
| COC(=O)[C@H](Cc1cc(I)c(Oc2cc(I)c(O)c(I)c2)c(I)c1)NC(C)=O [L-T4/A, N-Acetyl-L-T4-methylester] | 36% | 40% | 0.90 | appears to bind much less strongly to TBG than does L-T4 | sufficiently reduced binding to TBG for use in the free-T4 assay |  |
| CC(=O)N[C@@H](Cc1cc(I)c(Oc2cc(I)c(O)c(I)c2)c(I)c1)C(=O)N(C)C [N-acetyl-thyroxine-dimethylamide] |  |  |  |  |  | % Radioactivity in Solid Phase ([12]; Free T4 0 ng/dl, mean of duplicate tubes): 38%; % Radioactivity in Solid Phase ([12]; Free T4 0.18 ng/dl, mean of duplicate tubes): 22%; % Radioactivity in Solid Phase ([12]; Free T4 0.9 ng/dl, mean of duplicate tubes): 11%; % Radioactivity in Solid Phase ([12]; Free T4 3.0 ng/dl, mean of duplicate tubes): 6.0%; % Radioactivity in Solid Phase ([12]; Free T4 5.7 ng/dl, mean of duplicate tubes): 3.6%; % Radioactivity in Solid Phase ([12]; non-pregnant euthyroid control): 7.1%; % Radioactivity in Solid Phase ([12]; pregnant euthyroid control): 6.8% |
| CC(=O)[C@H]1CC[C@H]2[C@@H]3CCC4=CC(=O)CC[C@]4(C)[C@H]3CC[C@]12C [progesterone] |  |  |  |  |  | proportion bound to plasma proteins [11]: > 90% |

Reference: US4366143A, “Assay for the free portion of substances in biological fluids” (Amersham International Public Limited Company, priority 1979, dated 1982)
